Measurements taken from PubChem BioAssay AID1159562 (GlaxoSmithKline (GSK), 2015).
Blank lines part the entries; values can stand above or below the compound they belong to. Active and inactive are the calls of the source. How the calls were made is not given here.

Test system: Trypanosoma brucei growth inhibition, luminescence
Experiment: antitrypanosomal activity against T. brucei – luminescence (AID 1159562);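 further: parasites grew with compound for 24 h before the luminescence read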

SMILES: O=C(CN(Cc1ccccn1)Cc1ccccn1)NCc1csc(-c2cccs2)n1
- IC50: 16000 nM

SMILES: OCC1CCCCN1c1cc(-c2ccccn2)nc(Nc2ccccc2)n1 (configuration not stated)
- IC50: 6300 nM

SMILES: O=c1ccc2ccc(F)c3c2n1C[C@H]3CN1CCC(NCc2cc3ccccc3o2)CC1
- IC50: 2000 nM

SMILES: Cn1nccc1-c1cc(OC(CN)c2ccccc2)cnc1-c1ccco1 (configuration not stated)
- IC50: 16000 nM

SMILES: O=C(CN(c1cccc(C(F)(F)F)c1)S(=O)(=O)c1ccc(Cl)cc1)NCc1ccc(F)c(F)c1
- IC50: 25000 nM

SMILES: COc1ccc2c(Cl)c(C(=O)N3CCC3)sc2c1Cl
- IC50: > 40000 nM (inactive)

SMILES: Cn1nc(C(=O)N2CCc3ccccc32)c2c1CCS(=O)(=O)C2
- IC50: 6300 nM

SMILES: CC(=O)Nc1ccc(-c2cnc(N)c(-c3nc4ccc(F)cc4[nH]3)c2)cc1
- IC50: 2000 nM

SMILES: O=C(Nc1nc2ccccc2[nH]1)c1ccc2nc[nH]c2c1
- IC50: > 40000 nM (inactive)

SMILES: COc1cc(-c2nc(N3CCOCC3)sc2-c2ccnc(NC3CCOCC3)n2)ccc1Cl
- IC50: > 40000 nM (inactive)

SMILES: Cc1c(CNC(=O)c2ccc(Cn3cc(Cl)c([N+](=O)[O-])n3)cc2)cnn1C
- IC50: 10000 nM

SMILES: CN(C)c1ccc(N)cc1CN(CC1CCCO1)S(C)(=O)=O (configuration not stated)
- IC50: > 40000 nM (inactive)

SMILES: COc1ccc(CN2CCCCC2c2nc(-c3cccnc3)no2)cc1 (configuration not stated)
- IC50: > 40000 nM (inactive)

SMILES: COc1ccc(Nc2nccc(N(C)c3n[nH]c4c(F)cccc34)n2)cc1S(C)(=O)=O
- IC50: 10000 nM

SMILES: COc1cc(C(C)C)c(S(C)(=O)=O)cc1C(=O)N1CCN(c2ccccc2Cl)CC1
- IC50: 32000 nM

SMILES: Cc1nn(C)c(Cl)c1CN(Cc1cccnc1)Cc1ccsc1
- IC50: > 40000 nM (inactive)

SMILES: CN(Cc1nnnn1C1CCN(Cc2ccc(-n3ccnc3)cc2)CC1)c1ccc(F)cc1F
- IC50: > 40000 nM (inactive)

SMILES: COc1ccccc1CNc1cc(C2CC2)nc(-c2nccn2C)n1
- IC50: 2000 nM

SMILES: O=C(Nc1nc2ccccc2[nH]1)c1c(O)c2cccc3c2n(c1=O)CC3
- IC50: 20000 nM

SMILES: c1cc(-c2ncc(-c3ccn[nH]3)s2)ccn1
- IC50: > 40000 nM (inactive)

SMILES: O=S(=O)(NCC(c1cccnc1)N1CCN(c2ccc(F)cc2)CC1)c1cccs1 (configuration not stated)
- IC50: > 40000 nM (inactive)

SMILES: CC(c1cc(Cl)cc(Cl)c1)N(C)c1ncc2c(N)nc(N)nc2n1 (configuration not stated)
- IC50: 32000 nM

SMILES: Cc1ccc(C)c(CN2C(=O)NC3(CCc4ccccc43)C2=O)c1 (configuration not stated)
- IC50: 1000 nM

SMILES: CCc1cc(C(=O)Nc2nccn2-c2ccccc2)cs1
- IC50: 4000 nM

SMILES: NC(=O)c1ccsc1NC(=O)c1ccc([N+](=O)[O-])s1
- IC50: 1600 nM

SMILES: COc1ccc(-c2nc3ccncc3c(=O)n2CCOc2ccccc2)cc1
- IC50: 32000 nM

SMILES: CN(C)CCOc1ccc(N2CCN(S(=O)(=O)c3ccc(Cl)cc3)CC2)cc1
- IC50: 25000 nM

SMILES: O=C(Nc1n[nH]c(-c2ccccn2)n1)C1CC1c1ccccc1 (configuration not stated)
- IC50: 20000 nM

SMILES: c1ccc(-c2nc(NC3CCCC3)c3ccccc3n2)nc1
- IC50: 6300 nM

SMILES: N#Cc1cc(-c2ccnc(Nc3cccc(CN4CCOCC4)c3)n2)ccc1NCCN
- IC50: 1300 nM

SMILES: CC(C(=O)Nc1ccccc1F)N(C)CC(=O)Nc1cccc2ccccc12 (configuration not stated)
- IC50: > 40000 nM (inactive)

SMILES: CN(C)Cc1ccc(N2CCC(NS(=O)(=O)c3ccc(Cl)cc3)CC2)cc1
- IC50: 32000 nM

SMILES: NC(=O)c1ccc(-c2cccc(OCCN3CCN(C4CCCCC4)CC3)c2)cc1
- IC50: 16000 nM

SMILES: O=C(CSc1ccc(F)cc1)N[C@@H](Cc1cnc[nH]1)C(=O)NCCc1ccccc1
- IC50: > 40000 nM (inactive)

SMILES: O=C(C1CCCCC1)N1CCN(c2nnc(-c3ccccc3)c3ccccc23)CC1
- IC50: > 40000 nM (inactive)

SMILES: Cc1cc(N(C)C)nc2ccc(Cc3cnc(N)nc3N)cc12
- IC50: 5000 nM

SMILES: O=C(Nc1ccc(C(F)(F)F)cc1)Nc1cccc([N+](=O)[O-])c1
- IC50: 2000 nM

SMILES: CN(Cc1ccc(F)cc1)c1ccc(OCC(=O)N2CCCCC2c2cccnc2)nn1 (configuration not stated)
- IC50: > 40000 nM (inactive)

SMILES: CNc1cc(Cn2c(C(=O)c3cc(C)cc(Cl)c3)c(C(C)C)c(=O)[nH]c2=O)ccn1
- IC50: 25000 nM

SMILES: CC1(Oc2cncc(Cl)c2)CCN(Cc2cc3ccccc3[nH]2)C1 (configuration not stated)
- IC50: > 40000 nM (inactive)

SMILES: c1ccc(Nc2nc(-c3ccccn3)cc(N3CCOCC3)n2)cc1
- IC50: 13000 nM

SMILES: O=C(Nc1ccc(-c2nc3ccccc3c(=O)[nH]2)cc1)c1cccs1
- IC50: 1000 nM

SMILES: N#Cc1cccc(CN2CCC(c3nc(-c4ccc(C(F)(F)F)nc4)no3)CC2)c1
- IC50: > 40000 nM (inactive)

SMILES: CCN(CC)c1nc(Nc2ccncc2)nc2ccccc12
- IC50: 5000 nM

SMILES: CCc1cccc(-n2nc(OCC(=O)NC3CCCC3)c3cccnc32)c1
- IC50: > 40000 nM (inactive)

SMILES: Cn1nc([N+](=O)[O-])nc1Oc1ccc(C(=O)c2ccccc2)cc1
- IC50: > 40000 nM (inactive)

SMILES: COc1ccc(-c2cnc(NC(=O)c3ccc(F)cc3)n2C)cc1
- IC50: 3200 nM

SMILES: COc1ccc(C(=O)N2CCC(Nc3cccnc3)C2)c(OC)n1 (configuration not stated)
- IC50: > 40000 nM (inactive)

SMILES: COc1ccc(-c2nc3ncccc3o2)cc1NC(=O)c1cccs1
- IC50: 2500 nM

Further compounds by falling IC50, results first:

- IC50: 1000 nM
SMILES: CCc1cccc(CC)c1-n1c(SCC(=O)N2CC(=O)Nc3ccccc32)nnc1-c1cccnc1

- IC50: 1000 nM
SMILES: Cc1nc(-c2ccncc2)ncc1C(C)NC(=O)c1ccc(Cl)s1 (configuration not stated)

- IC50: 1000 nM
SMILES: O=C(Nc1ccc(C(F)(F)F)cc1)NC1(C(=O)NCc2ccco2)CCCCC1

- IC50: 790 nM
SMILES: COc1ccc(OC)c(S(=O)(=O)N(Cc2c(F)cccc2F)[C@@H]2CCN(C#N)C2)c1

- IC50: 790 nM
SMILES: COc1ccc(-c2csc(NC(=O)c3ccc([N+](=O)[O-])s3)n2)cc1

- IC50: 790 nM
SMILES: CC(C)(C)CC(=O)NCc1noc(COc2ccccc2)n1

- IC50: 790 nM
SMILES: CCOc1ccc(OCC(=O)N2c3ccccc3CC2C(=O)NC)cc1 (configuration not stated)

- IC50: 790 nM
SMILES: Cc1[nH]n2c(=O)c3c(nc2c1-c1ccc(Br)cc1)CCCC3

- IC50: 630 nM
SMILES: NC(=O)c1ncccc1Nc1nc(NC2CCC(O)CC2)ncc1Br (configuration not stated)

- IC50: 630 nM
SMILES: O=C(Nc1nc(-c2ccccn2)cs1)c1ccc(S(=O)(=O)N2CCCCC2)cc1

- IC50: 630 nM
SMILES: NC(=O)c1cc(F)ccc1Nc1nc(NC2CCC(O)CC2)ncc1Cl (configuration not stated)

- IC50: 630 nM
SMILES: CCOC(=O)c1noc(N)c1-c1ccccc1

- IC50: 500 nM
SMILES: Cc1ccc(S(=O)(=O)Nc2ccc(CN3CCN(C(=O)c4cccc(C)c4)CC3)cc2)cc1

- IC50: 500 nM
SMILES: CCC(CC)C(=O)Nc1ccc(-c2nnc(-c3ccc(OC)cc3)o2)cc1

- IC50: 500 nM
SMILES: CCOc1ccc(NC(=O)c2ccc(NC(=O)NC3CCCCC3)cc2)cc1

- IC50: 500 nM
SMILES: CCCCn1c(=O)c2c(N)onc2n(CCCC)c1=O

- IC50: 500 nM
SMILES: COc1ccc2nccc(NC(=O)C3(OC)CCN(CC(O)c4ccc5c(c4)OCCO5)CC3)c2n1 (configuration not stated)

- IC50: 500 nM
SMILES: Cc1cccc(Nc2nc(-c3ccccn3)cs2)n1

- IC50: 500 nM
SMILES: COc1ccc2nccc([C@H](O)CN3CC[C@H](NC(=O)c4ccc(Br)cc4)[C@@H](O)C3)c2n1

- IC50: 400 nM
SMILES: O=C(NCc1nnc2n1CCCCC2)c1csc(-c2ccccc2)n1

- IC50: 320 nM
SMILES: NC(=O)c1cc(F)ccc1Nc1nc(NC2CCC(O)CC2)ncc1Br (configuration not stated)

- IC50: 320 nM
SMILES: Cc1ccccc1NS(=O)(=O)c1ccc2[nH]cc(C(=O)NC3CCCCC3)c(=O)c2c1

- IC50: 250 nM
SMILES: Cc1cc(Nc2ccc(C#N)c(Cl)c2C)n[nH]1

- IC50: 250 nM
SMILES: Cn1nc(-c2ccc(NC(=O)Cc3ccccc3Cl)cc2)c2c(N)ncnc21

- IC50: 250 nM
SMILES: CC(C)S(=O)(=O)c1ccc(-c2cnc(N)c3cc(-c4ccnc(N)n4)ccc23)cc1

- IC50: 250 nM
SMILES: Cc1[nH]nc(Nc2ccnc3[nH]ccc23)c1C

- IC50: 200 nM
SMILES: O=C(NCCc1csc(-c2ccc(F)cc2)n1)c1cccs1

- IC50: 200 nM
SMILES: CN(C)Cc1cccc(Nc2nccc(-c3ccc(NCCN)c(C#N)c3)n2)c1
